Data: patent publication US4352944A, “Treatment of cashew nut shell liquid” (Minnesota Mining and Manufacturing Company, priority 1980, dated 1982)
Entries after “also recorded” stand apart in the source; their conditions may differ.

Columns and labels:
[1] = Effectiveness of bases in cardol removal / cardol-cardanol separation (Example 7); conditions: for effect on separation / suitability, in words: general statement
[2] = Distillation of Technical CNSL treated with amines (Example 1, Table 1); conditions: for % composition of distillate: 2-me-Cardol / % composition of distillate: Cardanol / % composition of distillate: Cardol / % composition of residue: 2-me-Cardol / % composition of residue: Cardanol / % composition of residue: Cardol: short still head
Description: (§1) Technical CNSL of Brazilian origin and distilled CNSL obtained from it were used in the present work. Material of this origin tends to be richer in cardol. The average molecular weight was taken to be 306 based upon cardanol (average dienoid, m.w. 300) and cardol (m.w. 314, average trienoid). Three amines were used, namely diethylenetriamine (V), N-(2-aminoethyl)ethanolamine (VI) and diethanolamine (VII), which are structurally related. [drawing 3] Different molar proportions of the triamine (DETA) (V) were used with distilled CNSL (1.0 mole), from 0.25, 0.50 to 1.0. In the case of Technical CNSL (having more cardol initially present) the molar proportions of DETA were 1.0, 1.6 and 2.0 per mole of the CNSL. The mixtures in all cases were kept for 7 days and then distilled under high vacuum. After recovery of the amine, one fraction of cardanol which was considerably purified was collected. […] The distillation residue was still quite mobile and from this, cardol and the polymer from the original CNSL could be recovered.
In a typical experiment, technical CNSL (9.18 g) and DETA (3.09 g: 1 mole) were interacted at ambient temperature and the mixture after 7 days distilled through a short Vigreux type Claisen flask.
(§2) In the distillations reported in the following Tables 1 and 2 a Vigreux column was not used but merely a short still head section. All products were examined by gas-liquid chromatography (hereinafter GLC) on a gas chromatographic apparatus equipped with an integrator upon a 3% SE30 type column after trimethylsilylation with bis-(trimethylsilyl)acetamide in a pyridine solution. In the calculation of the results, response fractions have not been used. The peak areas as printed out by integration have been normalized (expressed in % form).
(9.18 g of Technical CNSL was used)

[3] = Runs with different amines on distilled CNSL, GC of distillate (Example 2); conditions: 0.2 mole amine, seven days, 0.5 mm Hg, fraction 180-185° C.
Experimental: A series of runs was performed using different amines. 0.2 mole of the amines indicated in the table was mixed with 300 g of distilled CNSL (cardanol:cardol 90:10, 1.0 mole). When the mixture was stirred a mild exothermic reaction was noted. The mixture was allowed to stand for seven days at room temperature then distilled at 0.5 mm Hg. The major fraction (boiling at 180° to 185° C.) was analyzed by gas chromatography for cardanol and cardol.

[4] = Distillation of distilled CNSL treated with amines (Example 1, Table 2)
Description: as §1, §2
(9.18 g distilled CNSL was used with different

[5] = Effect of length of time of DETA treatment (Example 3)
Description: as §1, §2
Technical CNSL was treated with DETA (1 mole proportion) and the mixture distilled as in Example 1 after it had been allowed to stand for 24 hours instead of 7 days. […] Probably an overnight procedure might well suffice.

[6] = determined in aqueous solution; literature values; cited from earlier work

**Q.** With `NCCNCCN` [DETA, diethylenetriamine] as the molecule, how does the “Effectiveness (in cardol removal)” value [1] read?
**A.** Its value is “excellent”.

**Q.** What about the cardol after distillation ([2]; 1 molar proportion, no Vigreux column, from ca 20%) of the same molecule?
**A.** The cardol after distillation was ~6%.

**Q.** And the “impurity in distilled cardanol by TLC” value ([2]; 1 mole DETA, 7 days, short Vigreux type flask)?
**A.** Its value is “no cardanol”.

**Q.** What about the “cardol after distillation, in words” value ([2]; Vigreux type column) of the same molecule?
**A.** Its value is “almost zero”.

**Q.** What about the “% composition of distillate: 2-me-Cardol” value ([2]; amine 1 M, 7 days) of the same molecule?
**A.** Its value is 1.9%.

**Q.** What about the “% composition of distillate: Cardanol” value ([2]; amine 1 M, 7 days) of the same molecule?
**A.** Its value is 93.0%.

**Q.** And the “% composition of distillate: Cardol” value ([2]; amine 1 M, 7 days)?
**A.** Its value is 5.1%.

**Q.** And the “% composition of residue: 2-me-Cardol” value ([2]; amine 1 M, 7 days)?
**A.** The value was 3.2%.

**Q.** What about the “% composition of residue: Cardanol” value ([2]; amine 1 M, 7 days) of the same molecule?
**A.** Its value is 85.6%.

**Q.** And the “% composition of residue: Cardol” value ([2]; amine 1 M, 7 days)?
**A.** The value was 11.2%.

**Q.** What about the “% composition of distillate: 2-me-Cardol” value ([2]; amine 1.6 M, 7 days) of the same molecule?
**A.** The value was 2.1%.

**Q.** And the “% composition of distillate: Cardanol” value ([2]; amine 1.6 M, 7 days)?
**A.** Its value is 91.1%.

**Q.** And the “% composition of distillate: Cardol” value ([2]; amine 1.6 M, 7 days)?
**A.** The value was 6.8%.

**Q.** And the “% composition of residue: 2-me-Cardol” value ([2]; amine 1.6 M, 7 days)?
**A.** The value was 4.24%.

**Q.** And the “% composition of residue: Cardanol” value ([2]; amine 1.6 M, 7 days)?
**A.** Its value is 75.1%.

**Q.** What about the “% composition of residue: Cardol” value ([2]; amine 1.6 M, 7 days) of the same molecule?
**A.** The value was 21.7%.

**Q.** And the “% composition of distillate: 2-me-Cardol” value ([2]; amine 2 M, 7 days)?
**A.** The value was 1.1%.

**Q.** And the “% composition of distillate: Cardanol” value ([2]; amine 2 M, 7 days)?
**A.** The value was 93.1%.

**Q.** And the “% composition of distillate: Cardol” value ([2]; amine 2 M, 7 days)?
**A.** The value was 5.8%.

**Q.** What about the “% composition of residue: 2-me-Cardol” value ([2]; amine 2 M, 7 days) of the same molecule?
**A.** Its value is 7.6%.

**Q.** What about the “% composition of residue: Cardanol” value ([2]; amine 2 M, 7 days) of the same molecule?
**A.** The value was 63.2%.

**Q.** What about the “% composition of residue: Cardol” value ([2]; amine 2 M, 7 days) of the same molecule?
**A.** The value was 29.1%.

**Q.** What about the “% composition of distillate: Cardanol” value [3] of the same molecule?
**A.** Its value is 98.9%.

**Q.** What about the “% composition of distillate: Cardol” value [3] of the same molecule?
**A.** The value was 0.0%.

**Q.** What about the “% composition of distillate: 2-me-Cardol” value ([4]; amine 0.25 M) of the same molecule?
**A.** The value was 0.7%.

**Q.** What about the “% composition of distillate: Cardanol” value ([4]; amine 0.25 M) of the same molecule?
**A.** Its value is 95.4%.

**Q.** And the “% composition of distillate: Cardol” value ([4]; amine 0.25 M)?
**A.** Its value is 3.9%.

**Q.** And the “% composition of distillate: 2-me-Cardol” value ([4]; amine 0.50 M)?
**A.** The value was 0.4%.

**Q.** What about the “% composition of distillate: Cardanol” value ([4]; amine 0.50 M) of the same molecule?
**A.** The value was 97.7%.

**Q.** What about the “% composition of distillate: Cardol” value ([4]; amine 0.50 M) of the same molecule?
**A.** The value was 2.0%.

**Q.** What about the “% composition of distillate: 2-me-Cardol” value ([4]; amine 1.0 M) of the same molecule?
**A.** Its value is 2.0%.

**Q.** What about the “% composition of distillate: Cardanol” value ([4]; amine 1.0 M) of the same molecule?
**A.** Its value is 93.8%.

**Q.** And the “% composition of distillate: Cardol” value ([4]; amine 1.0 M)?
**A.** Its value is 4.2%.

**Q.** And the “effectiveness of 24 hour treatment” value ([5]; 24 h, 1 mole proportion)?
**A.** Its value is “quite effective”.

**Q.** And the “% Composition of distillate: 2-Methyl-Cardol” value ([5]; 24 h with DETA (1 M))?
**A.** Its value is 1.6%.

**Q.** What about the “% composition of distillate: Cardanol” value ([5]; 24 h with DETA (1 M)) of the same molecule?
**A.** The value was 91.7%.

**Q.** What about the “% composition of distillate: Cardol” value ([5]; 24 h with DETA (1 M)) of the same molecule?
**A.** Its value is 6.6%.

**Q.** What about the “% Composition of distillate: 2-Methyl-Cardol” value ([5]; 7 days with DETA (1 M)) of the same molecule?
**A.** The value was 1.8%.

**Q.** And the “% composition of distillate: Cardanol” value ([5]; 7 days with DETA (1 M))?
**A.** The value was 92.0%.

**Q.** What about the “% composition of distillate: Cardol” value ([5]; 7 days with DETA (1 M)) of the same molecule?
**A.** Its value is 6.2%.

**Q.** And the Kb [6]?
**A.** The Kb was 4.5 × 10^-5.

**Q.** What does the source list for `OCCNCCO` [Diethanolamine, diethanolamine]?
**A.** Effectiveness (in cardol removal) [1]: not effective; also recorded: ineffective; effect on separation / suitability, in words [1]: not effective; % composition of distillate: 2-me-Cardol ([2]; amine 1.5 M, 7 days): 2.3%; % composition of distillate: Cardanol ([2]; amine 1.5 M, 7 days): 88.0%; % composition of distillate: Cardol ([2]; amine 1.5 M, 7 days): 9.7%; % composition of residue: 2-me-Cardol ([2]; amine 1.5 M, 7 days): 10.4%; % composition of residue: Cardanol ([2]; amine 1.5 M, 7 days): 55.7%; % composition of residue: Cardol ([2]; amine 1.5 M, 7 days): 33.9%

**Q.** With `NCCNCCO` [N-(2-Aminoethyl)ethanolamine, N-(2-aminoethyl)ethanolamine] as the molecule, how does the “Effectiveness (in cardol removal)” value [1] read?
**A.** The value was “excellent”.

**Q.** What about the “% composition of distillate: 2-me-Cardol” value ([2]; amine 1.5 M, 7 days) of the same molecule?
**A.** Its value is 2.3%.

**Q.** And the “% composition of distillate: Cardanol” value ([2]; amine 1.5 M, 7 days)?
**A.** The value was 92.4%.

**Q.** And the “% composition of distillate: Cardol” value ([2]; amine 1.5 M, 7 days)?
**A.** The value was 5.3%.

**Q.** And the “% composition of residue: 2-me-Cardol” value ([2]; amine 1.5 M, 7 days)?
**A.** The value was 4.7%.

**Q.** And the “% composition of residue: Cardanol” value ([2]; amine 1.5 M, 7 days)?
**A.** Its value is 75.5%.

**Q.** And the “% composition of residue: Cardol” value ([2]; amine 1.5 M, 7 days)?
**A.** Its value is 19.8%.

**Q.** And the Kb [6]?
**A.** The Kb was 6.6 × 10^-5.

**Q.** With `C1CCNCC1` [Piperidine, piperidine] as the molecule, how does the “Effectiveness (in cardol removal)” value [1] read?
**A.** Its value is “excellent”.

**Q.** What about the “% composition of distillate: Cardanol” value [3] of the same molecule?
**A.** Its value is 96.1%.

**Q.** And the “% composition of distillate: Cardol” value [3]?
**A.** The value was 2.2%.

**Q.** And the Kb [6]?
**A.** The Kb was 1.7 × 10^-3.

**Q.** With `N` [ammonium hydroxide] as the molecule, how does the “effect on separation / suitability, in words” value [1] read?
**A.** Its value is “not suitable”.

**Q.** Which “Effectiveness (in cardol removal)” value [1] does the source give for `CCCCN` [n-butylamine] here?
**A.** The value was “not effective; also recorded: ineffective”.

**Q.** What about the “effect on separation / suitability, in words” value [1] of the same molecule?
**A.** The value was “not suitable”.

**Q.** And the “% composition of distillate: Cardanol” value [3]?
**A.** The value was 94.5%.

**Q.** And the “% composition of distillate: Cardol” value [3]?
**A.** The value was 5.5%.

**Q.** And the Kb [6]?
**A.** Its Kb is 3.9 × 10^-4.

**Q.** For `CCN(CC)CC` [triethylamine], which “Effectiveness (in cardol removal)” value [1] is on record?
**A.** Its value is “excellent”.

**Q.** And the Kb [6]?
**A.** The Kb was 4.5 × 10^-4.
